Assay results: patent US11497813B2, “Bortezomib conjugates and methods using same” (Frank EBETINO et al., priority 2015, dated 2022)

Test system: UPS activation
Test: Ub^G76V-GFP reporter cells (GFP+ cells) in osteoclast cultures and on pre-incubated bone slices
Format: cell-based, mouse
Conditions: BM cells from Ub^G76V-GFP mice on bone slices pre-incubated with compound
Protocol: FIG. 5A is a scheme of an exemplary synthesis of compound BP-Btz1. FIG. 5B is a series of images of bone slices pre-incubated with 1 μM BP-Btz1, Btz, or bisphosphonate (BP) overnight. Drug solutions were removed and bone slices were washed with PBS extensively. […] (BM) cells from UB^G76V-GFP mice were cultured on bone slices in the presence of M-CSF and RANKL for 9 days. Top images (a): GFP^+ cells were observed under a fluorescence microscope and GFP signal intensity was quantified. Middle images (b): bone slices were fixed and subjected to TRAP staining for osteoclasts (OCs). OC #/slice were counted. Bottom images (c): cells were removed from slices. Toluidine blue staining was performed and pit areas/slice were counted. FIG. 5C is a series of images of murine BM cells cultured and stained for ALP. FIG. 5D is a series of images of human MSCs cultured and stained for ALP. Murine BM cells and human MSCs were cultured in the OB-inducing medium plus different concentrations of BP-Btz1 or Btz for 4 or 6 days, respectively. Cells were stained for ALP. The ALP^+ areas were measured by Image J. *P<0.05 vs. Btz-treated cells.
1. Ub^G76V-GFP mice in B6 background (Stock #008111, Jax lab) are generated using previously described methods (Lindsten et al., 2003, Nat. Biotech. 21:897-902). The Ub^G76V-GFP transgene was designed with a chicken beta-actin promoter and CMV immediate early enhancer upstream of a GFP fused to a mutant ubiquitin moiety (Ub^G76V), a constitutively active proteasome degradation signal. Following proteasome inhibitor administration, Ub^G76V accumulates and GFP fluorescence is readily apparent. GFP^+ OCs were detected at 4 and 8 hrs after adding Btz to OC cultures, which disappeared at 24 hrs. […] 2. OC formation and resorption assays and data analyses are performed as described herein (FIG. 4) and using previously described methods (Zhang et al., 2014, J. Clin. Invest. 124:3200-3214; Xiu et al., 2014, J. Clin. Invest. 124:297-310). […] The number and area of OCs and resorption pits are assessed. The appearance, intensity and distribution of GFP^+ cells on bone slices and plastic surrounding bone slices during OC formation is observed and recorded. 3. OB differentiation. Third passages of BM stromal cells are used as MPCs, as previously described (Shu et al., 2013, J. Bone Min. Res. 28:1925-1935; Zhang et al., 2014, J. Clin. Invest. 124:3200-3214). MPCs are cultured on plastic plates in OB-inducing medium±BP-Btz conjugates, Btz or BP (0.1-100 nM) for 1-3 wks. Plates are subjected to alkaline phosphatase (ALP) and alizarin red staining, and qPCR analyses. Area of ALP^+ and mineralized bone nodule, and the expression levels of OB marker genes (ALP, osteocalcin, Runx2) are measured. GFP^+ cells during OB differentiation are observed as in OCs. In a parallel experiment, human MSCs (from Lonza) are treated with BP-Btz, Btz, or BP in OB-inducing medium and their effects examined on OB differentiation as show in FIGS. 5C and 5D. 4. Western blot/Ub assays. OCPs or MPCs are treated with a preferred dose of leading BP-Btz, Btz and BP. OCP lysates are subjected to Western blot using α-NF-κB members and TRAF6 Abs. OB lysates are subjected to Western blot with α-ubiquitin, Runx2, or JunB Abs, and Ub assays using UbiQapture matrix (Biomol) to pull down Ub-proteins followed by α-Runx2 and JunB Abs using previously described methods (Zhao et al., 2010, J. Bone Min. Res. 25:1246-1256; Zhao et al., 2011, Stem cells 29:1601-1610).

Q: Which “GFP+ cells on pre-incubated bone slices” value does the source give for `NCC(P(=O)(O)O)P(=O)(O)O` [BP] here?
A: The value was “not”.
